Assay results taken from US20070065850A1, “Method for diagnosis of heart failure” (OSAKA UNIVERSITY, priority 2005, published 2007).
d = 2'-deoxy (DNA)

What was measured:
[1] = test system: cultured neonatal rat cardiac myocytes; assay: CHOP expression by real-time quantitative RT-PCR after treatment with pharmacological ER stress inducers; format: cell-based; details: for CHOP/GAPDH: cultured cardiac myocytes 48 hours after treatment with ER stress inducer, untreated 1.0, mean±SEM
Procedure: Primary cultures of cardiac myocytes were prepared from neonatal rat hearts as described previously (13). All procedures were performed in accordance with the guidline of Osaka University School of Medicine with regard to animal care and the “Position of the American Heart Association on Research Animal Use.”
(§1) RT-PCR of human and rat heart samples was performed according to the Omniscript Reverse Transcription handbook (QIAGEN Inc.). The human and rat primers and probes used for quantification of BNP, GRP78, CHOP, and GAPDH were all designed according to the manufacturer's protocol (Applied Biosystems, https://www.appliedbiosystems.com/catalog/). Real-time quantitative RT-PCR was performed with an ABI PRISM 7700 Sequence Detection System (Applied Biosystems) by the relative standard curve method. The target amount was determined from the relative standard curves constructed with serial dilutions of the control total RNA.

[2] = test system: CHOP mRNA; assay: CHOP mRNA knockdown by siRNA transfection (RNA interference), real-time quantitative RT-PCR; format: cell-based, rat; details: siRNA 60 nM, mean±SEM
Procedure: as §1
The inventors designed 3 different short interfering RNAs (siRNA) with 3′ dTdT overhangs to knock down CHOP mRNA (CHOP siRNA-1: 5′-CCUUCACUACUCUUGACCC-3′ (SEQ ID NO. 1), siRNA-2: 5′-GAUCAAGGAAGAACUAGGA-3′ (SEQ ID NO. 2), siRNA-3: 5′-GGAGCAGGAGAAUGAGAGG-3′(SEQ ID NO. 3) and ordered Dharmacon Inc. to synthesize them. After rat cardiac myocytes were isolated, they were incubated in Dulbecco's modified Eagle's medium (Invitrogen Corporation) Opti-MEM (Invitrogen Corporation), siRNA oligonucleotides (CHOP siRNA 1-3) (60 nM) and Optifect (Invitrogen Corporation) were added on the day of cardiac myocyte isolation. […] Messenger RNA and protein levels of CHOP were measured 24 and 48 hrs after the transfection of CHOP siRNA, respectively. […]

[3] = test system: CHOP; assay: CHOP protein level by immunoblotting after siRNA transfection; format: cell-based, rat; details: cardiac myocytes treated with tunicamycin; protein measured 48 hrs after transfection; actin internal control
Procedure: Immunoblotting was performed as described previously (13). Primary antibodies targeting CHOP (sc-793) and actin (sc-1615) were purchased from Santa Cruz Biotechnology. Forty eight hours after the treatment of neonatal rat cardiac myocytes with tunicamycin (Sigma-Aldrich), cardiac myocytes were harvested.
(§2) The inventors designed 3 different short interfering RNAs (siRNA) with 3′ dTdT overhangs to knock down CHOP mRNA (CHOP siRNA-1: 5′-CCUUCACUACUCUUGACCC-3′ (SEQ ID NO. 1), siRNA-2: 5′-GAUCAAGGAAGAACUAGGA-3′ (SEQ ID NO. 2), siRNA-3: 5′-GGAGCAGGAGAAUGAGAGG-3′(SEQ ID NO. 3) and ordered Dharmacon Inc. to synthesize them. After rat cardiac myocytes were isolated, they were incubated in Dulbecco's modified Eagle's medium (Invitrogen Corporation) Opti-MEM (Invitrogen Corporation), siRNA oligonucleotides (CHOP siRNA 1-3) (60 nM) and Optifect (Invitrogen Corporation) were added on the day of cardiac myocyte isolation. As a negative control, cells were transfected with siRNA against firefly luciferase from Photinus pyralis (GL2 siRNA) (15). Messenger RNA and protein levels of CHOP were measured 24 and 48 hrs after the transfection of CHOP siRNA, respectively.

[4] = test system: neonatal rat cardiac myocytes; assay: Apoptotic cell assay (TUNEL); format: cell-based
Procedure: The terminal deoxynucleotidyl transferase-mediated dUTP nick end labeling (TUNEL) assay was performed as described previously (7). Forty eight hours after the treatment of neonatal rat cardiac myocytes with tunicamycin (Sigma-Aldrich), cells were subjected to TUNEL staining. The TUNEL-positive cardiac myocytes counted in DAPI-positive cardiac myocytes (n=100, 5 times) were expressed as a percentage.
as §2

[5] = test system: cardiac myocytes; assay: MTT assay (cell viability); format: cell-based, rat; details: tunicamycin for 48 hours
Procedure: Cardiac myocytes were treated with tunicamycin for 48 hours, after which cell viability was assessed by MTT assay according to the manufacturer's instructions (Cell Counting Kit-8, Wako Pure Chemical Industries, Ltd.). The percentage of viable cells was determined by taking the value for untreated cells as 100%.
as §2

Molecule: C[C@H]1CCC/C=C/[C@@H]2C[C@H](O)C[C@H]2[C@H](O)/C=C/C(=O)O1 [brefeldin A]
- CHOP/GAPDH [1]: 8.1±0.7

Molecule: C/C=C(/C)C(=O)O[C@H]1C(C)=C2[C@H]([C@@H]1OC(=O)CCCCCCC)[C@@](C)(OC(C)=O)C[C@H](OC(=O)CCC)[C@@]1(O)[C@H]2OC(=O)[C@@]1(C)O [thapsigargin]
- CHOP/GAPDH [1]: 19.0±0.3

Molecule: CHOP siRNA-2: siRNA with 3′ dTdT overhangs to knock down CHOP mRNA: 5′-GAUCAAGGAAGAACUAGGA-3′ (SEQ ID NO. 2) (RNA, 3' dTdT, backbone not given here)
- CHOP/GAPDH after transfection of siRNA, induction by brefeldin A ([2]; brefeldin A alone 8.1±0.7): 2.2±0.8
- CHOP/GAPDH after transfection of siRNA, induction by thapsigargin ([2]; thapsigargin alone 19.0±0.3): 2.1±1.0
- protein level of CHOP after transfection of siRNA [3]: almost completely suppressed
- Effect of siRNA on the tunicamycin-induced increase of TUNEL-positive cardiac myocytes ([4]; tunicamycin 48 hours, siRNA 60 nM): attenuated
- Effect of siRNA on the tunicamycin-induced decrease of cell viability ([5]; siRNA 60 nM): attenuated

Molecule: tunicamycin
- CHOP expression (real-time quantitative RT-PCR) ([1]; cultured neonatal rat cardiac myocytes treated with tunicamycin, normalized for GAPDH, compared with 0 hour): increase
- Number of TUNEL-positive cardiac myocytes ([4]; 48 hours after treatment with tunicamycin, vs. no treatment): increased
- Cell viability (MTT assay) ([5]; untreated cells as 100%): decreased
